Test results as given in ChEMBL document CHEMBL4732047, “New imidazopyridines with phosphodiesterase 4 and 7 inhibitory activity and their efficacy in animal models of inflammatory and autoimmune diseases” (Eur J Med Chem, 2021).
The source made the active and inactive calls. No cut-off for these calls is given here.

How the values were obtained:
[1] = biological target: 3',5'-cyclic-AMP phosphodiesterase 4B (Homo sapiens, UniProt Q07343); assay: Inhibition of human recombinant PDE4B using cAMP as substrate incubated for 20 mins measured by Kinase Glo reagent based microplate reader assay
Sequence of 3',5'-cyclic-AMP phosphodiesterase 4B (Q07343 whole entry): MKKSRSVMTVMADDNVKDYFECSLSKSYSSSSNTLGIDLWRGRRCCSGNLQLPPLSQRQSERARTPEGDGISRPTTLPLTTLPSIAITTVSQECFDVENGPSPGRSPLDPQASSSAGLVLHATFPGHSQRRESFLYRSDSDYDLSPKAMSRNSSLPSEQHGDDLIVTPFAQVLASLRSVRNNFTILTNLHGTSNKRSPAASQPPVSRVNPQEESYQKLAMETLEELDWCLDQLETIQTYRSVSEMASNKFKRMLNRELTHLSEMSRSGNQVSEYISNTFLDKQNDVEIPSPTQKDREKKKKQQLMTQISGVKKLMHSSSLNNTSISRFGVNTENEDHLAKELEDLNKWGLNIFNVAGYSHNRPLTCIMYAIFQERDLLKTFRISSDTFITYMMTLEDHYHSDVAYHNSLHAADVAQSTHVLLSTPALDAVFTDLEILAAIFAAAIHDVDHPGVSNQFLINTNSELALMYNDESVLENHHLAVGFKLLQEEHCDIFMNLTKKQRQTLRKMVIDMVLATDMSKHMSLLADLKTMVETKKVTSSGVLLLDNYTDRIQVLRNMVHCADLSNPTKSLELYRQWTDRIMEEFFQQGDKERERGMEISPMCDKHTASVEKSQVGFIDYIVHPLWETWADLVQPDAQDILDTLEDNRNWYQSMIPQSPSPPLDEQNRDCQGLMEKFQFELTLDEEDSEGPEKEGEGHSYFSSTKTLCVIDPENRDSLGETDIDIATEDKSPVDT

[2] = biological target: High affinity 3',5'-cyclic-AMP phosphodiesterase 7A (Homo sapiens, UniProt Q13946); assay: Inhibition of human recombinant PDE7A using cAMP as substrate incubated for 20 mins measured by Kinase Glo reagent based microplate reader assay
Sequence of High affinity 3',5'-cyclic-AMP phosphodiesterase 7A (Q13946 whole entry): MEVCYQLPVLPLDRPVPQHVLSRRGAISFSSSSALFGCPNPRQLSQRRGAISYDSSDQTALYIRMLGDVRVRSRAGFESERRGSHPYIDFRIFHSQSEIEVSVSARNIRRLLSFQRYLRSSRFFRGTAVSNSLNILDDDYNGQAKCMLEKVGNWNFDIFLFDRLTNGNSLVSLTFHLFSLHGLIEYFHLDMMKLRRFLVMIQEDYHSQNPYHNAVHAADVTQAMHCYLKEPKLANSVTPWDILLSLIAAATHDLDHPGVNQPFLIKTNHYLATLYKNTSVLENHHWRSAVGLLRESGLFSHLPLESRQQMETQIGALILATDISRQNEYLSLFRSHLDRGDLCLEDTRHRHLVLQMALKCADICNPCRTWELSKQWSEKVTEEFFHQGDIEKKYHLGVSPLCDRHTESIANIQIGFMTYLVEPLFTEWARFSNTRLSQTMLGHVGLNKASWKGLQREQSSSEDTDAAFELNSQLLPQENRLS

Mus musculus [3] = assay: Hepatoprotective activity in ConA-induced BALB/c hepatitis mouse model assessed as decrease in serum aspartate aminotransferase level at 10 mg/kg, ip administration and measured after 8 hrs relative to control; assay type: functional, organism-based
Rattus norvegicus [4] = assay: Antiinflammatory activity in LPS-induced Wistar rat endotoxemia model assessed as decrease in plasma TNFalpha level at 5 mg/kg, ip measured after 2 hr; assay type: functional; design: scale not given: the % may be the effect or the level left
Mus musculus [5] = assay: Hepatoprotective activity in ConA-induced BALB/c hepatitis mouse model assessed as decrease in serum IFNgamma level at 50 mg/kg, ip administration and measured after 8 hrs relative to control; assay type: functional, organism-based
Mus musculus [6] = assay: Hepatoprotective activity in ConA-induced BALB/c hepatitis mouse model assessed as decrease in serum IFNgamma level at 10 mg/kg, ip administration and measured after 8 hrs relative to control; assay type: functional, organism-based
Mus musculus [7] = assay: Hepatoprotective activity in ConA-induced BALB/c hepatitis mouse model assessed as decrease in serum IL-6 level at 10 mg/kg, ip administration and measured after 8 hrs relative to control; assay type: functional, organism-based
Mus musculus [8] = assay: Hepatoprotective activity in ConA-induced BALB/c hepatitis mouse model assessed as decrease in serum alanine aminotransferase level at 50 mg/kg, ip administration and measured after 8 hrs relative to control; assay type: functional, organism-based
Mus musculus [9] = assay: Hepatoprotective activity in ConA-induced BALB/c hepatitis mouse model assessed as decrease in serum aspartate aminotransferase level at 50 mg/kg, ip administration and measured after 8 hrs relative to control; assay type: functional, organism-based
Rattus norvegicus [10] = assay: Antiinflammatory activity in LPS-induced Wistar rat endotoxemia model assessed as decrease in plasma TNFalpha level at 5 mg/kg, ip measured after 1 hr; assay type: functional; design: scale not given: the % may be the effect or the level left
Rattus norvegicus [11] = assay: Antiinflammatory activity in LPS-induced Wistar rat endotoxemia model assessed as decrease in plasma TNFalpha level at 5 mg/kg, ip measured after 1.5 hr; assay type: functional; design: scale not given: the % may be the effect or the level left
Mus musculus [12] = assay: Hepatoprotective activity in ConA-induced BALB/c hepatitis mouse model assessed as decrease in serum alanine aminotransferase level at 10 mg/kg, ip administration and measured after 8 hrs relative to control; assay type: functional, organism-based
Mus musculus [13] = assay: Hepatoprotective activity in ConA-induced BALB/c hepatitis mouse model assessed as decrease in serum IL-6 level at 50 mg/kg, ip administration and measured after 8 hrs relative to control; assay type: functional, organism-based

SMILES | IC50 [1] | IC50 [2] | other results
CCCCCn1c(-c2ccccc2)nc2c(NCc3ccccc3)ccnc21 | 16.9 µM | > 200 µM | 
Nc1nc(O)c2nc(Br)n(C3CCCc4cccc(Br)c43)c2n1 (stereo not drawn) |  | 1.31 µM | 
CCCCCn1c(-c2ccccc2)nc2c(NCCCO)ccnc21 | 23.2 µM | > 200 µM | 
CNc1nc(C(F)(F)F)nc2c1ncn2Cc1ccccc1F | 0.042 µM |  | 
CCCCCn1c(-c2ccccc2)nc2c(N)ccnc21 | 29 µM | > 200 µM | 
COc1ccc(C2CNC(=O)C2)cc1OC1CCCC1 (stereo not drawn) [ROLIPRAM] |  |  | Activity (Mus musculus [3]): Active; Activity (Rattus norvegicus [4]): 77.1%; Activity (Mus musculus [5]): Active; Activity (Mus musculus [6]): Active; Activity (Mus musculus [7]): Active; Activity (Mus musculus [8]): Active; Activity (Mus musculus [9]): Active; Activity (Rattus norvegicus [10]): 85.6%; Activity (Rattus norvegicus [11]): 73.5%; Activity (Mus musculus [12]): Active; Activity (Mus musculus [13]): Active
COCCNc1ccnc2c1nc(-c1ccco1)n2C1CCCC1 | 5.41 µM | 119 µM | 
CCCCCn1c(-c2ccccc2)nc2c(NCCCO)nccc21 | 60 µM | > 200 µM | 
